In general, IC50 refers to the concentration at which inhibition is half-maximal. Usually MIC stands for the smallest concentration in the dilution series that meets the test's criterion for growth inhibition. By Ki is commonly meant a dissociation constant, usually derived from enzyme kinetics or from competition with a known ligand.

The text below walks through data of publication PMC4210890, “Suvanine Sesterterpenes from a Tropical Sponge Coscinoderma sp. Inhibit Isocitrate Lyase in the Glyoxylate Cycle” (Marine Drugs, 2014).

Assay [1] deals with T1, recombinant ICL from C. albicans ATCC 10231 (Candida albicans, UniProt Q9P8Q7).
T1 construct: thioredoxin (fusion partner of the pBAD/Thio-TOPO vector); made in house; host or cells: Escherichia coli TOP10
The assay can be described thus: biochemical. How it is done:
Compound 1−9 were obtained as mentioned previously (Figure 1). The expression and purification of recombinant ICL from the genomic DNA of C. albicans (ATCC 10231) were carried out by a method described previously. The inhibitory effects of the isolated compounds on ICL were evaluated according to a procedure documented previously. The basic concept of this method was to measure spectrophotometrically the formation of glyoxylate phenylhydrazone in the presence of phenylhydrazine and isocitrate. The effect of the inhibitor on ICL was calculated as a percentage relative to dimethyl sulfoxide (DMSO)-treated control. Mixture of ICL, substrate, phenyhydrazine was incubated for 30 min with various concentrations of suvanine sesterterpenes (100 to 0.1 μg/mL). The formation of glyoxylate phenylhydrazone was followed spectrophotometrically at 324 nm. Data were scaled to internal controls, and a four- parameter logistic model (GraphPad ver. 5.0, Prism) was used to fit the measured data and determine IC50 (inhibitory concentration for 50% activity) values.
The preparation of recombinant ICL protein from the genomic DNA of C. albicans ATCC 10231 was carried out using a method described previously. Briefly, ICL was PCR-amplified using two synthetic primers: 5′-[…]-3′ (forward) and 5′-[…]-3′ (reverse). The PCR product was cloned into the pBAD/Thio-TOPO vector (Invitrogen, Carlsbad, CA, USA) and transformed into Escherichia coli TOP10 (Invitrogen).
The effect of isolated compounds on ICL was evaluated according to a procedure documented previously. A 1-mL aliquot of the reaction mixture contained 20 mM sodium phosphate buffer (pH 7.0), 1.27 mM threo-DL (+) isocitrate, 3.75 mM MgCl2, 4.1 mM phenylhydrazine and 2.5 μg/mL purified ICL. The reaction was performed at 37 °C for 30 min with and without a prescribed concentration of the inhibitor dissolved in DMSO (final concentration, 0.5%). The formation of glyoxylate phenylhydrazone was followed spectrophotometrically at 324 nm. The effect of the inhibitor on ICL was calculated as a percentage relative to the solvent-treated control. A 12-point, twofold serial dilution dose–response assay was performed in triplicate. The resultant dose–response concentration range was 100 to 0.1 μg/mL of inhibitor in a 1-mL final reaction volume. Data were scaled to internal controls, and a four-parameter logistic model (GraphPad ver. 5.0, Prism) was used to fit the measured data and determine the IC50 values. The ICL inhibitor 3-nitropropionate was used as a positive control. Protein concentration was determined by the method of Bradford using the Bio-Rad protein assay kit (Bio-Rad, Hercules, CA, USA) and bovine serum albumin as a standard.

Assay [2] has as its system C. albicans SC5314. The experiment in a line: In vitro growth assay (MIC) in YNB broth with glucose or acetate. In kind it is cell-based, Candida albicans. As to conditions: 3 days at 28 °C; for MIC: Candida albicans, 72 h. How it is done:
The microbial strategy for survival during growth in a nutrient-free environment entails a metabolic shift in the carbon source to C2 substrates generated by β-oxidation of fatty acids. […] To investigate whether ICL inhibitors affected C2 substrate use, we cultured C. albicans strain SC5314 in YNB broth containing either 2% glucose or 2% potassium acetate as the sole carbon source, and inhibition was evaluated based on the MIC.
C. albicans strains were grown in YNB ([…] yeast nitrogen base) broth containing 2% glucose at 28 °C for 24 h, harvested by centrifugation, and washed twice with sterile distilled water. Each test compound was dissolved in DMSO and diluted with YNB containing 2% glucose or 2% potassium acetate to prepare serial twofold dilutions in the range 100–0.1 μg/mL. The final DMSO concentration was maintained at 0.5% by adding DMSO to the medium. Twenty microliters of the broth containing test fungus was added to each well of a 96-well microtiter plate (final concentration of 1 × 10^4 cells/mL). Culture plates were incubated for 3 days at 28 °C. […] Amphotericin B was used as a reference compound.

The target in assay [3] is ICL from C. albicans (Candida albicans, UniProt Q9P8Q7). The experiment in a line: biochemical. To be noted: for type of inhibition: Lineweaver and Burk plot at IC50 or twofold IC50; for reversibility of binding to enzyme: enzyme activity recovered by dialysis within 2 h. Type of assay: biochemical. The method, then: To determine the type of inhibition, kinetic studies were performed with compounds 1, 2 and 4 at IC50 or twofold IC50 based on Lineweaver and Burk plot (Figure 3). Inhibitor constants were obtained by Dixon plot.
Figure 3 Lineweaver-Burk plot of ICL inhibition by compounds 1, 2 and 4. [S], substrate concentration [mM]; V, reaction velocity (∆absorbance unit/min). Each data point represents the mean of three experiments.

Assay [4] relates to ICL mRNA expression in C. albicans. The assay can be described thus: Semi-quantitative RT-PCR analysis of ICL mRNA expression. In kind it is cell-based, Candida albicans. As to conditions: acetate medium.
The subject of assay [5] is C. albicans strain SC5314 (wild-type), MRC10 (Δicl), and MRC11 (Δicl + ICL). The experiment in a line: Growth phenotype of wild-type and ICL deletion mutants on YNB agar plates. In kind it is cell-based, Candida albicans. To be noted: 12.5 μg/mL, 3 days at 28 °C.
Setting [6] is: recombinant ICL from C. albicans ATCC 10231, 37 °C, 30 min, mean ± SD (n = 3), read-out: ICL IC50.
Where [7] appears, read: recombinant ICL from C. albicans ATCC 10231, value in parentheses.
The mark [8] stands for this setting: YNB broth with 2% potassium acetate.
Where [9] appears, read: recombinant ICL from C. albicans ATCC 10231, value in parentheses, read-out: ICL IC50.
The mark [10] stands for this setting: YNB broth with 2% glucose, read-out: MIC, Glucose.
The mark [11] stands for this setting: YNB broth with 2% potassium acetate, read-out: MIC, Acetate.

Values after ≈ are worked out from the molar mass of the structure shown. Values joined by “and” are separate entries in the source; they are usually repeats but may differ in a detail not shown here. Equal entries are not always repeated. Where two headings read alike, the source gives them in different places.

T1 sequence (Q9P8Q7 whole entry, the tested form may be a part): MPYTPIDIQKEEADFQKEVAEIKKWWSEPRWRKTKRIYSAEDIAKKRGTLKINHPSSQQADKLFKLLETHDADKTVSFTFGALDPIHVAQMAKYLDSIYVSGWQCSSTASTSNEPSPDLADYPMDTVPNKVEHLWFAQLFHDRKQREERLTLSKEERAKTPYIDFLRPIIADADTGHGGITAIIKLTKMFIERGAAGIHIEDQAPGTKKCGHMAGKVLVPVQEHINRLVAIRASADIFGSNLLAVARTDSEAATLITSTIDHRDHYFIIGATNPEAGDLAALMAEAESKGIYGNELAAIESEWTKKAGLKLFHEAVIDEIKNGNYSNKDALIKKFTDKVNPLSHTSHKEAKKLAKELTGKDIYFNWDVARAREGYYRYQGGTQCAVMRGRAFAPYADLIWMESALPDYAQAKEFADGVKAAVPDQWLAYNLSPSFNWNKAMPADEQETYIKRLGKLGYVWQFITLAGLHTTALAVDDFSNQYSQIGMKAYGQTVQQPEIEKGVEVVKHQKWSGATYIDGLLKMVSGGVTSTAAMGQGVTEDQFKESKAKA
Sequence of ICL from C. albicans (Q9P8Q7 whole entry): as the sequence (Q9P8Q7 whole entry, the tested form may be a part) above

As to `O=C(O)CC[N+](=O)[O-]` [Compound 3-NP, 3-Nitropropinate, reference compound], the half-maximal inhibitory concentration (IC50) in assay [1] (setting [6]) was 17.3 ± 1.04 µM. Also, in assay [1] (setting [7]), the “ICL IC50” value was determined as 2.06 ± 0.12 µg/mL. The “MIC, Glucose” value in assay [2] (YNB broth with 2% glucose) is listed as above 100 µg/mL. Further, the “MIC, Acetate” value in assay [2] (setting [8]) is above 100 µg/mL.
`CC1(C)CCC[C@]2(C)[C@H]3CC/C(=C\OS(=O)(=O)[O-])[C@H](CCC4=CCNC4=O)[C@@]3(C)CC[C@@H]12.[Na+]` [Compound 9]: the IC50 in assay [1] (setting [6]) was 59.2 ± 1.11 µM; in assay [1] (setting [9]), 59.1 ± 0.54 µM. Also, the MIC in assay [2] (setting [10]) and in assay [2] (setting [11]) was above 100 µg/mL throughout.
`C=C(CC(=O)O)C(=O)O` [Itaconate, itaconate, reference compound]: the MIC in assay [2] (setting [10]) and in assay [2] (setting [11]) was above 100 µg/mL throughout.
Consider `CC1(C)CCC[C@]2(C)[C@H]3CC/C(=C\OS(=O)(=O)[O-])[C@H](CCC4=CC(=O)OC4)[C@@]3(C)CC[C@@H]12.[Na+]` [Compound 4], for which, in assay [3], the inhibitory constant (Ki) was found to be 62.6 µM, the type of inhibition result is “mixed noncompetitive inhibitors” and the “reversibility of binding to enzyme” value is “reversible”. Besides, in assay [1] (ICL IC50), the IC50 was 26.3 µM and 26.2 µM. Also, the minimum inhibitory concentration (MIC) in assay [2] (setting [10]) is above 100 µg/mL. Moreover, in assay [2] (setting [11]), the MIC came to 100 µg/mL.
In the case of `C[C@@H]1[C@H](O)[C@@H](C)/C=C/C=C/C=C/C=C/C=C/C=C/C=C/[C@H](O[C@@H]2O[C@H](C)[C@@H](O)[C@H](N)[C@@H]2O)C[C@@H]2O[C@](O)(C[C@@H](O)C[C@@H](O)[C@H](O)CC[C@@H](O)C[C@@H](O)CC(=O)O[C@H]1C)C[C@H](O)[C@H]2C(=O)O` [Amph B, Amphotericin B, reference compound], the figures for the minimal inhibitory concentration (MIC) in assay [2] (setting [10]) and in assay [2] (setting [11]) were 1.56 µg/mL (≈ 1.69 µM) and 0.39 µg/mL (≈ 0.422 µM), respectively.
For the compound `CO[C@H]1C=C(CC[C@H]2/C(=C/OS(=O)(=O)[O-])CC[C@H]3[C@]2(C)CC[C@H]2C(C)(C)CCC[C@]32C)[C@@H](OC)O1.[Na+]` [Compound 7], the half-inhibitory concentration (IC50) in assay [1] (ICL IC50) is 59.1 µM and 51.1 µM. In addition, the MIC in assay [2] (setting [10]) and in assay [2] (setting [11]) was above 100 µg/mL in each case.
For `CC1(C)CCC[C@]2(C)[C@H]3CC/C(=C\OS(=O)(=O)[O-])[C@H](CCc4ccoc4)[C@@]3(C)CC[C@@H]12.C[N+](C)=C(N)N` [Compound 1, suvanine salt], in assay [3], the type of inhibition entry is “uncompetitive inhibitor” and the “reversibility of binding to enzyme” value is “reversible”. The inhibition constant (Ki) in assay [3] (obtained by Dixon plot, read-out: Ki (inhibitor constant)) was 17.4 µM. In addition, the “ICL IC50” value in assay [1] was 22.43 ± 1.49 (12.03 ± 0.80) µg/mL. Besides, the IC50 in assay [1] (read-out: ICL IC50) worked out at 22.4 µM. Besides, the “MIC, Glucose” value in assay [2] (YNB broth with 2% glucose) worked out at 100 µg/mL. Moreover, the “MIC, Acetate” value in assay [2] (setting [8]) came to 25 µg/mL.
On to `CC1(C)CCC[C@]2(C)[C@H]3CC/C(=C\OS(=O)(=O)[O-])[C@H](CCc4ccoc4)[C@@]3(C)CC[C@@H]12.[Na+]` [Compound 2, suvanine salt], for which, in assay [4] (12.5 μg/mL, 4 h at 28 °C, densitometric analysis), the “reduction of ICL mRNA expression” value is on record as “seventeenfold”. Also, in assay [4] (SC5314 and MRC11, 6.25 and 12.5 µg/mL), the “ICL transcript levels with increasing compound concentration” value is “diminished with increasing compound 2 concentrations”. Moreover, in assay [3], the affinity, expressed as Ki, was 14.4 µM; the type of inhibition entry is recorded as “mixed noncompetitive inhibitors”; the “reversibility of binding to enzyme” value is on record as “reversible”. Further, in assay [5] (SC5314, MRC10, MRC11, 2% glucose), the “growth on YNB agar plates containing glucose plus compound” value is “grew normally”. For the same compound, in assay [5] (all tested strains, 2% sodium acetate), the “growth on YNB agar plates containing acetate plus compound” value is “inhibited markedly”. Moreover, the 50% inhibitory concentration (IC50) in assay [1] (ICL IC50) came to 6.35 µM. Further, in assay [2] (setting [10]), the MIC came to 100 µg/mL. Further, the MIC in assay [2] (setting [11]) came out at 12.5 µg/mL. Besides, the “MIC, Acetate” value in assay [2] (setting [8]) was found to be 12.5 µg/mL.
Take `CC1(C)CCC[C@]2(C)[C@H]3CC/C(=C\OS(=O)(=O)[O-])[C@H](CCC4=CC(=O)O[C@@H]4O)[C@@]3(C)CC[C@@H]12.[Na+]` [Compound 3]: the IC50 in assay [1] (setting [6]) came out at 56.2 ± 7.1 µM. In addition, the “ICL IC50” value in assay [1] (setting [7]) stood at 28.33 ± 3.58 µg/mL. Moreover, the minimum inhibitory concentration (MIC) in assay [2] (setting [10]) and in assay [2] (setting [11]) was above 100 µg/mL in each case.
With `CO[C@H]1C=C(CC[C@H]2/C(=C/OS(=O)(=O)[O-])CC[C@H]3[C@]2(C)CC[C@H]2C(C)(C)CCC[C@]32C)C(=O)O1.[Na+]` [Compound 6], the half-maximal inhibitory concentration (IC50) in assay [1] (setting [6]) was 96.2 ± 1.54 µM; in assay [1] (setting [9]) it was 96.08 ± 0.799 µM. The figures for the MIC in assay [2] (setting [10]) and in assay [2] (setting [11]) were above 100 µg/mL and 100 µg/mL, respectively.
Taken in the same sequence, the figures for `CO[C@@H]1C=C(CC[C@H]2/C(=C/OS(=O)(=O)[O-])CC[C@H]3[C@]2(C)CC[C@H]2C(C)(C)CCC[C@]32C)C(=O)O1.[Na+]` [Compound 5] were 50.2 ± 6.27 µM, 50.2 ± 3.25 µM, above 100 µg/mL and above 100 µg/mL.
Regarding `CO[C@@H]1O[C@H](OC)[C@](O)(CC[C@H]2/C(=C/OS(=O)(=O)O)CC[C@H]3[C@]2(C)CC[C@H]2C(C)(C)CCC[C@]32C)[C@H]1O` [Compound 8], the IC50 in assay [1] (ICL IC50) was found to be 67.6 µM. In addition, the MIC in assay [2] (setting [10]) and in assay [2] (setting [11]) was above 100 µg/mL each time.
